According to patent publication US11352350B2, “IRAK degraders and uses thereof” (Kymera Therapeutics, Inc., priority 2018, dated 2022):
Like-named read-outs stand apart in the source and are kept apart here.

Assays:
[1] = molecular target: IRAK4 (Homo sapiens (Human), UniProt Q9NWZ3); assay: IRAK4 MSD degradation in OCI-LY10; format: cell-based
Method in brief: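 OCI-LY10 cells treated with 8-point 1:3 dilutions (top 1 to 10 μM final) for 4 to 24 h at 37° C. Lysate IRAK4 measured by MSD sandwich immunoassay (2H9 capture, Y279 detection, SULFO-TAG anti-rabbit). DC50 from three-parameter logistic fit.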

[2] = test system: OCI-LY10; assay: CTG Cell Viability Assay - OCI-LY10; format: cell-based, human; details: Homo sapiens, OCI-Ly10, 96 h, OCI-LY10, 4 days; read-out: CTG Cell Viability Assay - OCI-LY10: Average external-IC50
Method in brief: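 OCI-LY10 cells exposed to 9-dose, 1:3 dilutions from 10 μM top (0.2% DMSO) for 4 days at 37° C, 5% CO2. Viability by CellTiter-Glo luminescence; IC50 from three-parameter logistic fit.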

[3] = OCI-LY10, 4 hrs, MSD, read-out: IRAK4 MSD degradation in OCI-LY10 at 4 hrs: Average external-Abs DC50
[4] = OCI-LY10, 24 hrs, MSD, read-out: IRAK4 MSD degradation in OCI-LY10 at 24 hrs: Average external-Abs DC50

Sequence of IRAK4 (Q9NWZ3 whole entry): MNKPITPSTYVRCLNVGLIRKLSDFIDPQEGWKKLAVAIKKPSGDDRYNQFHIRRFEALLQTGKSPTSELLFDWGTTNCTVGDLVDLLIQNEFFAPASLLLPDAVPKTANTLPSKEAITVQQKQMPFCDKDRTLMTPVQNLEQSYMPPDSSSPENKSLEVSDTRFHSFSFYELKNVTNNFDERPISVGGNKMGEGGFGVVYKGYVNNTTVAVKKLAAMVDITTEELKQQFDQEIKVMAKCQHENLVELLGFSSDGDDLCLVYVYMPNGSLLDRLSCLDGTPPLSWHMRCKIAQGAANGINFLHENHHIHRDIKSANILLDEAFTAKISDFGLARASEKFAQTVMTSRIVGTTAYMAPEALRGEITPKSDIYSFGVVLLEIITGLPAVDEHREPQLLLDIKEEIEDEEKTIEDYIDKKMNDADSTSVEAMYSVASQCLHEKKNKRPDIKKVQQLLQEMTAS

Compound: CN1C(=O)CCC(N2C(=O)c3cccc(NCCCOCCCS(=O)(=O)N(C)C(=O)[C@H]4CC[C@H](n5cc(NC(=O)c6cnn7ccc(N8C[C@H]9C[C@@H]8CO9)nc67)c(C(F)F)n5)CC4)c3C2=O)C1=O (stereo in doubt) [I-490, N-[3-(difluoromethyl)-1-[4-[methyl-[3-[3-[[2-(1-methyl-2,6-dioxo-3-piperidyl)-1,3-dioxo-isoindolin-4-yl]amino]propoxy]propylsulfonyl]carbamoyl]cyclohexyl]pyrazol-4-yl]-5-(2-oxa-5-azabicyclo [2.2.1]heptan-5-yl)pyrazolo [1,5-a]pyrimidine-3-carboxamide]
- DC50 ([1]; OCI-LY10, 4 hrs, read-out: IRAK4 MSD degradation in OCI-LY10 at 4 hrs: DC50): 100 to 1000 nM
- DC50 ([1]; OCI-LY10, 24 hrs, read-out: IRAK4 MSD degradation in OCI-LY10 at 24 hrs: DC50): > 1000 nM
- IC50 [2]: > 1000 nM

Compound: CN(CCCOCCCc1cccc2c1n(C)c(=O)n2C1CCC(=O)N(C)C1=O)C[C@H]1CC[C@H](n2cc(NC(=O)c3coc(-c4ccnc(NCC5CC5)c4)n3)c(C(F)F)n2)CC1 (stereo partly drawn) [I-246]
- DC50 [1, 3]: 100 to 1000 nM
- IC50 [2]: > 1000 nM

Compound: CC[C@@H]1[C@H](F)C(=O)N[C@@H]1COc1ncc(C#C[C@H]2CC[C@H](CN(C)C3CCN(Cc4ccc5c(c4)n(C)c(=O)n5C4CCC(=O)NC4=O)CC3)CC2)c2cc(C(N)=O)c(OC)cc12 (stereo partly drawn) [I-190]
- DC50 [1, 3]: 100 to 1000 nM
- DC50 [1, 4]: 10 to 100 nM
- IC50 [2]: > 1000 nM

Compound: Cn1c(=O)n(C2CCC(=O)NC2=O)c2cccc(CCCOCCCN3CCC(n4cc(NC(=O)c5cnn6ccc(N7CCNCC7)nc56)c(C(F)F)n4)CC3)c21 (stereo not drawn) [I-180]
- DC50 [1, 3]: 10 to 100 nM
- IC50 [2]: > 1000 nM

Compound: NC(=O)c1nn([C@H]2CC[C@@H](C(=O)NCCOCCOCCNc3cccc4c3C(=O)N(C3CCC(=O)NC3=O)C4=O)CC2)cc1NC(=O)c1coc(-c2ccnc(NCC(F)(F)F)c2)n1 (single isomer, unassigned) [I-14, N-(3-carbamoyl-1-((1s,4s)-4-((2-(2-(2-((2-(2,6-dioxopiperidin-3-yl)-1,3-dioxoisoindolin-4-yl)amino)ethoxy)ethoxy)ethyl)carbamoyl)cyclohexyl)-1H-pyrazol-4-yl)-2-(2-((2,2,2-trifluoroethyl)amino)pyridin-4-yl)oxazole-4-carboxamide]
- DC50 [1, 3]: 10 to 100 nM
- IC50 [2]: 100 to 500 nM

Compound: O=C1CCC(N2C(=O)c3cccc(N4CCC(CCN5CCC(n6cc(NC(=O)c7cnn8ccc(N9CCOCC9)nc78)c(C(F)F)n6)CC5)CC4)c3C2=O)C(=O)N1 (stereo not drawn) [I-227]
- DC50 [1, 3]: 100 to 1000 nM
- IC50 [2]: < 50 nM

Compound: O=C1CCC(N2C(=O)c3cccc(CCCOC4CCN(C[C@H]5CC[C@H](n6cc(NC(=O)c7coc(-c8ccnc(NCC9CC9)c8)n7)c(C(F)F)n6)CC5)CC4)c3C2=O)C(=O)N1 (stereo partly drawn) [I-171]
- DC50 [1, 3]: 10 to 100 nM
- IC50 [2]: 100 to 500 nM

Compound: CN(C[C@H]1CC[C@H](n2cc(NC(=O)c3cnn4ccc(N5CCOCC5)nc34)c(C(F)F)n2)CC1)[C@H]1CC[C@@H](Nc2cccc3c2C(=O)N(C2CCC(=O)NC2=O)C3=O)CC1 (stereo partly drawn) [I-350]
- DC50 [1, 3]: 100 to 1000 nM
- DC50 [1, 4]: 10 to 100 nM
- IC50 [2]: > 1000 nM

Compound: CC[C@@H]1CC(=O)N[C@@H]1COc1ncc(C#CC2CCN(CCCOCCCc3cccc4c3n(C)c(=O)n4C3CCC(=O)NC3=O)CC2)c2cc(C(N)=O)c(OC)cc12 (stereo partly drawn) [I-203]
- DC50 [1, 3]: > 1000 nM
- DC50 [1, 4]: 100 to 1000 nM
- IC50 [2]: > 1000 nM

Compound: O=C1CCC(n2c3cccc(CCCOC4CCN(C[C@H]5CC[C@H](n6cc(NC(=O)c7cnn8ccc(N9CCC(O)CC9)nc78)c(C(F)F)n6)CC5)CC4)c3c3cccnc32)C(=O)N1 (stereo partly drawn) [I-151]
- DC50 [1, 3]: 10 to 100 nM
- IC50 [2]: > 1000 nM

Compound: CC[C@@H]1[C@H](F)C(=O)N[C@@H]1COc1ncc(C#C[C@H]2CC[C@H](CN)CC2)c2cc(C(N)=O)c(OC)cc12 [I-314, 4-[2-[4-(Aminomethyl)cyclohexyl]ethynyl]-1-[[(2S,3S,4S)-3-ethyl-4-fluoro-5-oxo-pyrrolidin-2-yl]methoxy]-7-methoxy-isoquinoline-6-carboxamide]
- DC50 [1, 3]: > 1000 nM
- DC50 [1, 4]: > 1000 nM
- IC50 [2]: > 1000 nM

Compound: Cn1c(=O)n(C2CCC(=O)NC2=O)c2cccc(CCCOCCCOC3CCN(C4CCC(Nc5ncnc6ccc(C#N)cc56)CC4)CC3)c21 (stereo not drawn) [I-271]
- DC50 [1, 3]: > 1000 nM
- DC50 [1, 4]: > 1000 nM
- IC50 [2]: > 1000 nM
